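Following 48 hours of exposure in 96-well plates, responses at five concentrations were used to interpolate endpoints linearly. GI50 = concentration required for 50% inhibition of growth.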 Active and inactive are the calls of the source. No stated cut-off is given here; in the data, active = GI50 up to about 1.1 µM and inactive = higher.
Tests used:
Experiment in all cases: growth of human tumour cells (NCI), 48 h
786-0 = test system: 786-0
A498 = test system: A498
A549 = test system: A549
ACHN = test system: ACHN
BT-549 = test system: BT-549
CAKI-1 = test system: CAKI-1
CCRF-CEM = test system: CCRF-CEM
COLO 205 = test system: COLO 205
DLD-1 = test system: DLD-1
DMS-114 = test system: DMS-114
DMS-273 = test system: DMS-273
DU-145 = test system: DU-145
EKVX = test system: EKVX
HCC 2998 = test system: HCC 2998
HCT-116 = test system: HCT-116
HCT-15 = test system: HCT-15
HL-60 = test system: HL-60
HOP-18 = test system: HOP-18
HOP-92 = test system: HOP-92
HT-29 = test system: HT-29
Hs-578T = test system: Hs-578T
IGROV-1 = test system: IGROV-1
K562 = test system: K562
KM12 = test system: KM12
LOX IMVI = test system: LOX IMVI
LXFL 529 = test system: LXFL 529
M14 = test system: M14
M19-MEL = test system: M19-MEL
MCF7 = test system: MCF7
MDA-MB-231 = test system: MDA-MB-231
MDA-MB-435 = test system: MDA-MB-435
MDA-N = test system: MDA-N
MOLT-4 = test system: MOLT-4
Malme-3M = test system: Malme-3M
NCI-H226 = test system: NCI-H226
NCI-H23 = test system: NCI-H23
NCI-H460 = test system: NCI-H460
NCI-H522 = test system: NCI-H522
NCI/ADR-RES = test system: NCI/ADR-RES
OVCAR-3 = test system: OVCAR-3
OVCAR-4 = test system: OVCAR-4
OVCAR-5 = test system: OVCAR-5
OVCAR-8 = test system: OVCAR-8
PC-3 = test system: PC-3
RPMI-8226 = test system: RPMI-8226
RXF 393 = test system: RXF 393
RXF 631 = test system: RXF 631
SF-268 = test system: SF-268
SF-295 = test system: SF-295
SF-539 = test system: SF-539
SK-MEL-28 = test system: SK-MEL-28
SK-MEL-2 = test system: SK-MEL-2
SK-MEL-5 = test system: SK-MEL-5
SK-OV-3 = test system: SK-OV-3
SN12C = test system: SN12C
SNB-19 = test system: SNB-19
SNB-75 = test system: SNB-75
SNB-78 = test system: SNB-78
SW-620 = test system: SW-620
T47D = test system: T47D
TK-10 = test system: TK-10
U-251 = test system: U-251
UACC-257 = test system: UACC-257
UACC-62 = test system: UACC-62
UO-31 = test system: UO-31
XF498 = test system: XF498
HOP-62 = test system: HOP-62
KM-20L2 = test system: KM-20L2

`Cc1cc(N(CCC#N)CCC#N)ccc1/C=C(\NC(=O)/C=C/c1ccccc1)C(=O)Nc1ccc(Cl)cc1` was tested, and the GI50 (786-0) was > 100 µM (inactive), the GI50 (A498) was > 100 µM (inactive) and the GI50 (A549) was > 36.5 µM (inactive). The GI50 (ACHN) was 1.83 µM (inactive), the GI50 (BT-549) was > 100 µM (inactive) and the GI50 (CAKI-1) was > 28.3 µM (inactive). For the same molecule, the GI50 (CCRF-CEM) was 2.44 µM (inactive), the GI50 (COLO 205) was 1.07 µM (active) and the GI50 (DLD-1) was 5.58 µM (inactive). For the same molecule, the GI50 (DMS-114) was 1.62 µM (inactive), the GI50 (DMS-273) was 0.982 µM (active) and the GI50 (DU-145) was > 100 µM (inactive). For the same molecule, the GI50 (EKVX) was > 80.2 µM (inactive), the GI50 (HCC 2998) was 4.33 µM (inactive) and the GI50 (HCT-116) was 5.41 µM (inactive). For the same molecule, the GI50 (HCT-15) was 11.7 µM, the GI50 (HL-60) was 5.6 µM (inactive) and the GI50 (HOP-18) was > 100 µM (inactive). The GI50 (HOP-92) was > 100 µM (inactive), the GI50 (HT-29) was > 14.3 µM (inactive) and the GI50 (Hs-578T) was > 100 µM (inactive). The GI50 (IGROV-1) was 7.62 µM (inactive), the GI50 (K562) was 0.364 µM (active) and the GI50 (KM12) was 3.74 µM (inactive). The GI50 (LOX IMVI) was 1.14 µM (inactive), the GI50 (LXFL 529) was 0.0991 µM (active) and the GI50 (M14) was 9.16 µM (inactive). For the same molecule, the GI50 (M19-MEL) was 0.944 µM (active), the GI50 (MCF7) was 27 µM (inactive) and the GI50 (MDA-MB-231) was > 100 µM (inactive). The GI50 (MDA-MB-435) was 1.94 µM (inactive), the GI50 (MDA-N) was 5.01 µM (inactive) and the GI50 (MOLT-4) was 38.1 µM (inactive). The GI50 (Malme-3M) was 14.2 µM (inactive), the GI50 (NCI-H226) was > 69 µM (inactive) and the GI50 (NCI-H23) was > 63.1 µM (inactive). The GI50 (NCI-H460) was 52.4 µM (inactive), the GI50 (NCI-H522) was > 26.2 µM (inactive) and the GI50 (NCI/ADR-RES) was > 100 µM (inactive). For the same molecule, the GI50 (OVCAR-3) was 50.8 µM (inactive), the GI50 (OVCAR-4) was 30.5 µM (inactive) and the GI50 (OVCAR-5) was 54.6 µM (inactive). The GI50 (OVCAR-8) was > 100 µM (inactive), the GI50 (PC-3) was 0.586 µM (active) and the GI50 (RPMI-8226) was 10 µM (inactive). For the same molecule, the GI50 (RXF 393) was > 68.9 µM (inactive), the GI50 (RXF 631) was > 100 µM (inactive) and the GI50 (SF-268) was > 100 µM (inactive). For the same molecule, the GI50 (SF-295) was 4.86 µM (inactive), the GI50 (SF-539) was 6.81 µM (inactive) and the GI50 (SK-MEL-28) was > 100 µM (inactive). For the same molecule, the GI50 (SK-MEL-2) was > 59.6 µM (inactive), the GI50 (SK-MEL-5) was 0.179 µM (active) and the GI50 (SK-OV-3) was > 100 µM (inactive). For the same molecule, the GI50 (SN12C) was > 75.7 µM (inactive), the GI50 (SNB-19) was > 100 µM (inactive) and the GI50 (SNB-75) was > 52.4 µM (inactive). The GI50 (SNB-78) was > 100 µM (inactive), the GI50 (SW-620) was 12.3 µM (inactive) and the GI50 (T47D) was > 100 µM (inactive). For the same molecule, the GI50 (TK-10) was > 100 µM (inactive), the GI50 (U-251) was > 7.53 µM (inactive) and the GI50 (UACC-257) was > 46 µM (inactive). For the same molecule, the GI50 (UACC-62) was 0.577 µM (active), the GI50 (UO-31) was 11 µM (inactive) and the GI50 (XF498) was > 100 µM (inactive).

With `COc1cccc(C(=O)C2C(=O)N(C)CCc3ccccc32)c1OC` (stereo not drawn) the GI50 (786-0) was > 100 µM (inactive), the GI50 (A498) was > 100 µM (inactive) and the GI50 (A549) was > 100 µM (inactive). For the same molecule, the GI50 (ACHN) was > 100 µM (inactive), the GI50 (CAKI-1) was > 100 µM (inactive) and the GI50 (CCRF-CEM) was > 100 µM (inactive). For the same molecule, the GI50 (COLO 205) was > 100 µM (inactive), the GI50 (DLD-1) was > 100 µM (inactive) and the GI50 (DMS-114) was > 100 µM (inactive). The GI50 (DMS-273) was > 100 µM (inactive), the GI50 (HCT-116) was > 100 µM (inactive) and the GI50 (HCT-15) was over 100 µM. The GI50 (HL-60) was > 100 µM (inactive), the GI50 (HOP-18) was > 100 µM (inactive) and the GI50 (HOP-62) was > 100 µM (inactive). The GI50 (HOP-92) was > 100 µM (inactive), the GI50 (HT-29) was > 100 µM (inactive) and the GI50 (IGROV-1) was > 100 µM (inactive). For the same molecule, the GI50 (K562) was > 100 µM (inactive), the GI50 (KM-20L2) was > 100 µM (inactive) and the GI50 (KM12) was > 100 µM (inactive). The GI50 (LOX IMVI) was > 100 µM (inactive), the GI50 (LXFL 529) was > 100 µM (inactive) and the GI50 (M14) was > 100 µM (inactive). The GI50 (M19-MEL) was > 100 µM (inactive), the GI50 (MOLT-4) was > 100 µM (inactive) and the GI50 (Malme-3M) was > 100 µM (inactive). The GI50 (NCI-H226) was > 100 µM (inactive), the GI50 (NCI-H23) was > 100 µM (inactive) and the GI50 (NCI-H460) was > 100 µM (inactive). The GI50 (NCI-H522) was > 100 µM (inactive), the GI50 (OVCAR-3) was > 100 µM (inactive) and the GI50 (OVCAR-4) was > 100 µM (inactive). The GI50 (OVCAR-8) was > 100 µM (inactive), the GI50 (RPMI-8226) was > 100 µM (inactive) and the GI50 (RXF 393) was > 100 µM (inactive). The GI50 (RXF 631) was > 100 µM (inactive), the GI50 (SF-268) was > 10 µM (inactive) and the GI50 (SK-MEL-28) was > 100 µM (inactive). For the same molecule, the GI50 (SK-MEL-2) was > 100 µM (inactive), the GI50 (SK-MEL-5) was > 100 µM (inactive) and the GI50 (SK-OV-3) was > 100 µM (inactive). For the same molecule, the GI50 (SN12C) was > 100 µM (inactive), the GI50 (SNB-19) was > 100 µM (inactive) and the GI50 (SNB-75) was > 100 µM (inactive). For the same molecule, the GI50 (SW-620) was > 100 µM (inactive), the GI50 (TK-10) was > 100 µM (inactive) and the GI50 (U-251) was > 100 µM (inactive). The GI50 (UACC-257) was > 100 µM (inactive), the GI50 (UACC-62) was > 100 µM (inactive) and the GI50 (UO-31) was > 100 µM (inactive). The GI50 (XF498) was > 100 µM (inactive).

From ChEMBL document CHEMBL1201862, “PubChem BioAssay data set” (2004)
